Measured values as given in PMC10916382, “Repurposing screen identifies novel candidates for broad-spectrum coronavirus antivirals and druggable host targets” (Antimicrobial Agents and Chemotherapy, 2024).
Like-named read-outs stand apart in the source and are kept apart here.

Key:
in vitro [1] = details: for viability: Anti-SARS-CoV-2 screening on Calu-3 cells: viability [% of control], Calu-3 cells
HCoV-229E [2] = experiment: microbe, parasite or virus in culture; assay type: cell-based, Homo sapiens sapiens; details: Human coronavirus 229E
Huh-7.5/F-Luc cells = details: maximum tested dose 5 µM
SARS-CoV-2 [3] = details: Calu-3 cells
in vitro [4] = details: human
SARS-CoV-2 [5] = details: Calu-3 cells; remark: listed apart in the source
SARS-CoV-2 [6] = experiment: microbe, parasite or virus in culture; details: Severe acute respiratory syndrome coronavirus 2, Calu-3, 48 h
SARS-CoV-2 [7] = assay type: cell-based; details: dose range 0.15 µM to 10 µM, viral genome copies in apical washes and cellular lysates
HCoV-229E [8] = experiment: Twelve-step dose titration against HCoV-229E infection on Huh-7.5/F-Luc/Cas9 cells; assay type: cell-based, Homo sapiens sapiens; details: Human coronavirus 229E, Huh7.5, twelve-step 1:3 dilutions, n = 3
[9] = tested on: primary human airway epithelial cells; details: dose range 0.15 µM to 10 µM, cellular lysates
[10] = Huh7.5, read-out: IC50 (µM), HCoV 229E

CCN1[C@@H]2CC[C@H]1C[C@@H](OC(c1ccccc1)c1ccccc1)C2 [RFM-011-925-5]
viability (in vitro [1]): 117%
IC50 (HCoV-229E [2]; [10]): 1.62 µM
CC50 (µM) (Huh-7.5/F-Luc cells; Huh-7.5/F-Luc cells): greater than maximum tested dose
Anti-SARS-CoV-2 screening on Calu-3 cells: intracellular SARS-CoV-2 infection measured via immunofluorescence imaging [% of control] (SARS-CoV-2 [3]): 108.20 % of control
viability at 5 µM (in vitro [4]): 136%

Cc1c(NCCN2CCCC2)cc(C(=O)C(C)(C)C)cc1N1CCN(c2ncnc3[nH]nc(Br)c23)CC1 [RFM-011-974-4]
viability (in vitro [1]): 104%
IC50 (HCoV-229E [2]; [10]): 1.4 µM
CC50 (µM) (Huh-7.5/F-Luc cells; Huh-7.5/F-Luc cells): greater than maximum tested dose
Anti-SARS-CoV-2 screening on Calu-3 cells: intracellular SARS-CoV-2 infection measured via immunofluorescence imaging [% of control] (SARS-CoV-2 [3]): 103.98 % of control
viability at 5 µM (in vitro [4]): 124%

COCCN1CCC(N(Cc2ccc(-c3ccc(C(F)(F)F)cc3)cc2)C(=O)c2ccco2)CC1 [RFM-012-120-0]
viability (in vitro [1]): 94.4%
IC50 (HCoV-229E [2]; [10]): 1.61 µM
CC50 (µM) (Huh-7.5/F-Luc cells; Huh-7.5/F-Luc cells): greater than maximum tested dose
Anti-SARS-CoV-2 screening on Calu-3 cells: intracellular SARS-CoV-2 infection measured via immunofluorescence imaging [% of control] (SARS-CoV-2 [3]): 87.75 % of control
viability at 5 µM (in vitro [4]): 130%

CCCN(CCC)C(=O)C(Cc1ccc(OCCCN2CCN(C)CC2)cc1)NC(=O)c1cccc(Cl)c1 (stereo not shown) [RFM-012-155-1]
viability (in vitro [1]): 104%
IC50 (HCoV-229E [2]; [10]): 3.67 µM
CC50 (µM) (Huh-7.5/F-Luc cells; Huh-7.5/F-Luc cells): greater than maximum tested dose
Anti-SARS-CoV-2 screening on Calu-3 cells: intracellular SARS-CoV-2 infection measured via immunofluorescence imaging [% of control] (SARS-CoV-2 [3]): 95.12 % of control
viability at 5 µM (in vitro [4]): 126%

CCCN(CCC)C(=O)C(Cc1ccc(OCCCN2CCN(C)CC2)cc1)NC(=O)c1ccc(Br)cc1 (stereo not shown) [RFM-012-167-5]
viability (in vitro [1]): 99.3%
IC50 (HCoV-229E [2]; [10]): 2.36 µM
CC50 (µM) (Huh-7.5/F-Luc cells; Huh-7.5/F-Luc cells): greater than maximum tested dose
Anti-SARS-CoV-2 screening on Calu-3 cells: intracellular SARS-CoV-2 infection measured via immunofluorescence imaging [% of control] (SARS-CoV-2 [3]): 114.35 % of control
viability at 5 µM (in vitro [4]): 141%

CN(C)CC(O)COc1ccccc1C1CC2CCC1C2 (stereo not shown) [RFM-012-243-0]
viability (in vitro [1]): 95.3%
IC50 (HCoV-229E [2]; [10]): 1.84 µM
CC50 (µM) (Huh-7.5/F-Luc cells; Huh-7.5/F-Luc cells): greater than maximum tested dose
Anti-SARS-CoV-2 screening on Calu-3 cells: intracellular SARS-CoV-2 infection measured via immunofluorescence imaging [% of control] (SARS-CoV-2 [3]): 114.97 % of control
viability at 5 µM (in vitro [4]): 142%

CCc1ccc2c(c1)N(CC(C)CN(C)C)c1ccccc1S2 (stereo not shown) [RFM-012-636-3]
viability at 48 h, 5 µM (in vitro [1]): 108%
IC50 (HCoV-229E [2]; [10]): 1.71 µM
CC50 (µM) (Huh-7.5/F-Luc cells; Huh-7.5/F-Luc cells): greater than maximum tested dose
Anti-SARS-CoV-2 screening on Calu-3 cells: intracellular SARS-CoV-2 infection measured via immunofluorescence imaging [% of control] (SARS-CoV-2 [3]): 133.66 % of control
viability at 5 µM (in vitro [4]): 138%

Cc1nc(Nc2ncc(N3CCN(C)[C@H](C)C3)c(Nc3cc(C)n(C)n3)n2)cc(C2CC2)c1F [RFM-012-989-5]
viability (in vitro [1]): 114%
IC50 (HCoV-229E [2]; [10]): 1.97 µM
CC50 (µM) (Huh-7.5/F-Luc cells; Huh-7.5/F-Luc cells): greater than maximum tested dose
Anti-SARS-CoV-2 screening on Calu-3 cells: intracellular SARS-CoV-2 infection measured via immunofluorescence imaging [% of control] (SARS-CoV-2 [3]): 114.63 % of control
viability at 5 µM (in vitro [4]): 125%

Cc1ccc([C@@H](CCNCC2CCCCC2)[C@@H]2CCOC(C)(C)C2)cc1F [RFM-013-052-9]
viability (in vitro [1]): 102%
IC50 (HCoV-229E [2]; [10]): 1.8 µM
CC50 (µM) (Huh-7.5/F-Luc cells; Huh-7.5/F-Luc cells): greater than maximum tested dose
Anti-SARS-CoV-2 screening on Calu-3 cells: intracellular SARS-CoV-2 infection measured via immunofluorescence imaging [% of control] (SARS-CoV-2 [3]): 121.52 % of control
viability at 5 µM (in vitro [4]): 119%

COCCN1CCN(Cc2ccc(-c3n[nH]c4c3C(=O)c3c(NC(=O)NN5CCOCC5)cccc3-4)cc2)CC1 [RGB-286638, reference compound]
virus load in the culture fluid (SARS-CoV-2 [5]; screening dose 5 µM, 48 hours post-inoculation): reduced virus load
viability (in vitro [1]): 19%
IC50 (HCoV-229E [2]; Huh7.5): 0.12 µM
CC50 (µM) (Huh-7.5/F-Luc cells; Huh-7.5 cells, dose series): greater than maximum tested dose
Anti-SARS-CoV-2 screening on Calu-3 cells: intracellular SARS-CoV-2 infection measured via immunofluorescence imaging [% of control] (SARS-CoV-2 [3]): 123.82 % of control
outcome against confirmation criteria of the SARS-CoV-2 counter-screen (<50% infected cell, >75% total cells) (SARS-CoV-2 [3]; single dose of 5 µM): did not meet our stringent confirmation criteria

CCC(CC)COC(=O)[C@H](C)N[P@](=O)(OC[C@H]1O[C@@](C#N)(c2ccc3c(N)ncnn23)[C@H](O)[C@@H]1O)Oc1ccccc1 [Remdesivir]
SI (CC50/IC50) (SARS-CoV-2 [5]; CC50 from LDH assay / IC50 from qRT-PCR): > 6.76
IC50 (SARS-CoV-2 [6]): 180 nM
IC90 (SARS-CoV-2 [6]): 310 nM
IC50 (HCoV-229E [2]; Huh7.5): 0.02 µM
IC50 (HCoV-229E [2]; Huh7.5, 48 h, read-out: IC50 against HCoV-229E): 0.0157 µM
antiviral activity against SARS-CoV-2 in HAE cells (SARS-CoV-2 [7]): dose dependently inhibited SARS-CoV-2 infection
IC50 (HCoV-229E [8]): 0.83 nM
CC50 (µM) (Huh-7.5/F-Luc cells; Huh-7.5 cells, dose series): greater than maximum tested dose
Anti-SARS-CoV-2 screening on Calu-3 cells: intracellular SARS-CoV-2 infection measured via immunofluorescence imaging [% of control] (SARS-CoV-2 [3]): 1.09 % of control
cytotoxicity in HAE cells, GAPDH mRNA [9]: without reducing GAPDH mRNA levels
